Patent US8058425B2, “Purine derivatives as kinase inhibitors” (Eli Lilly and Company, priority 2002, dated 2011)

Assays:
[1] = system: female Fischer 344 rats; test: Bone Deposition; format: in vivo, rat; parameters: key: +: hypertrophy and proliferation of osteoblasts with production of osteoid observed; −: hypertrophy and proliferation of osteoblasts with production of osteoid not observed at this dose; conditions: oral gavage daily for 4 days
Procedure: Vehicle or test compound in vehicle (1% Carboxymethylcellulose sodium, 0.25% Polysorbate 80, and 0.05% Dow Corning Antifoam 1510-US in purified water) is administered orally by gavage to female Fischer 344 rats daily for 4 days with three rats in each dosage group. The rats are delivered for necropsy and sections of formalin-fixed, paraffin-embedded bone are examined microscopically to evaluate osteoblast proliferation and deposition of osteoid.
The compounds in the following tables were tested essentially as described above and hypertrophy and proliferation of osteoblasts along surfaces of medullary trabecula and the cortical periosteum accompanied by production of osteoid was observed.
The compound of Example 365 was tested again essentially as described above at 0, 3, 10, and 30 mg/kg with four rats at each dosage level for 21 days. The vertebra and the femur were submitted for analysis of bone mineral density (BMD), bone mineral content (BMC), and cross sectional area following 21 days of daily dosing with the compound of Example 365.

[2] = system: 3T3-L1 adipocytes; test: Glycogen Synthesis Assay; format: cell-based; conditions: 0.1 μM
Procedure: The glycogen synthesis assay measures the increase in the production of glycogen both in the absence and in the presence of insulin in the cells. This test is done according to standard protocols. (Berger, J. and Hayes, N. S., Anal. Biochem., 261, 159-163 (1998)). Briefly, 3T3-L1 adipocytes are plated and differentiated in a 96-well plate at 25,000 cells/well. The plate is serum-starved overnight. The serum-starvation media is removed just prior to assay, and the plate is washed with 100 μl/well Krebs-Ringer-Hepes buffer (KRBH). The KRBH is removed and 50 μl of compound (twice the amount of the final concentration) is added to the assay plate. Next, 50 μl of ^14C-labeled glucose is added to the assay plate at 0.1 μCi/well. The plate is then incubated at 37° C. for 2 hours.
The plate is washed with 100 μL/well of PBS, and the cells are lysed with 75 μl/well of 1N NaOH. The plate is heated at 70° C. for 20 minutes. An aliquot (50 μl) of the supernatant is transferred from the assay plate to a Millipore FC filter plate containing 120 μl/well of ice-cold ethanol. The plate is allowed to stand for 2 hours at 4° C. to facilitate precipitation. The ethanol is removed from the filter plate via a vacuum manifold, and the plate is washed with 100 uL/well of ice-cold 70% ethanol. […] The plate was then counted on a Packard Topcount. […]

[3] = target: T1, GSK-3β kinase activity in brain cortex tissue (Mus musculus, UniProt Q9WV60); test: Ex Vivo Brain Assay; format: in vivo; conditions: oral dosing of mice, dose of 20 mg/kg
T1 construct: brain cortex tissue is dissected and homogenized in freshly prepared lysis buffer; from tissue; host or cells: mouse (PDAPP or CD-1) brain cortex, cytosolic homogenate
T1 sequence (Q9WV60 whole entry): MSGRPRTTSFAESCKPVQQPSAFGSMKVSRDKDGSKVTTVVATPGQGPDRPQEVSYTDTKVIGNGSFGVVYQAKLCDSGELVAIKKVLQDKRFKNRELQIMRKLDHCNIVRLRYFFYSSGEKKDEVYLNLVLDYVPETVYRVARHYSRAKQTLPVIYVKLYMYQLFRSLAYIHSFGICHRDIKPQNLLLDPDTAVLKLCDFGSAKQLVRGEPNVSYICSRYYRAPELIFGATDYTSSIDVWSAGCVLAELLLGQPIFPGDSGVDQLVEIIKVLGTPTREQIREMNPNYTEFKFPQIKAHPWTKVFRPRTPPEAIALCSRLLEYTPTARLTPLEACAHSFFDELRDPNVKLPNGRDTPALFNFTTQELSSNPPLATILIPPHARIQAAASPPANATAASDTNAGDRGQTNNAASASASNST
Procedure: The ex vivo brain assay assesses the GSK-3β kinase activity of the test compound in brain cortex tissue according to standard protocols (Wang, et al., Anal. Biochem., 220, 397-402 (1994)).
The ex vivo GSK-3β kinase activity of a compound is assayed following oral dosing of 2 to 3 month old PDAPP or CD-1 mice. After a 20 mg/kg, 24-hour dose, followed by an additional three-hour dose, brain cortex tissue is dissected and homogenized in freshly prepared lysis buffer (10 mM K2HPO4 pH 7.2, 1 mM EDTA, 5 mM EGTA, 10 mM MgCl2, 50 mM β-Glycerophosphate, 1 mM Na3VO4, 2 mM DTT, 1 μM Microcystin, COMPLETE protease inhibitor tablet, no detergent). Following a thirty-minute incubation on ice, cortex homogenate samples are centrifuged (100,000 G) for 30 minutes at 4° C. (Ahmed, N. N., et al., Oncogene, 8, 1957 […]). The total protein concentration of homogenate is determined using the BCA method (Pierce). GSK-3β activity in cytosolic homogenate from vehicle- and compound-treated mice is then assayed. The kinase reaction occurs in a 50 μl total volume containing 20 mM MOPS pH 7.4, 25 mM β-glycerol phosphate, 5 mM EGTA, 1 mM NA3VO4, 1 mM DTT, 15 mM MgCl2, 100 μM cold ATP, 200 μM CREB peptide, 10 μL cytosolic cortex brain homogenate, and 5 μCi γ-^33P-ATP. […] The following day, the filter plate is read for ^33P on Top Count (Packard). […]

[4] = system: AG04160C FAD lymphoblast cells; test: Beta-Catenin Protection Assay; format: cell-based, human; conditions: 0.1 μM, 24 hours
Procedure: The beta-catenin assay is the fold induction over basal beta-catenin and is performed according to standard protocols (Hedgepeth, C. M., Dev. Biol., 185, 82-91 (1997); Chen, G., et al., J. Neurochem., 72, 1327-1330 (1999); Hong, M., et al., J. Biol. Chem., 272, 25326-25332 (1997)).
The human familial Alzheimer's disease (FAD) presenilin-1 AG04160C lymphoblast cell line (Coriell Cell Repository, Camden, N.J.) is maintained as a suspension culture in RPMI 1640 (with L-Glutamine) supplemented with 10% fetal bovine serum and 1% penicillin-streptomycin in an atmosphere of 37° C. and 5% CO2. The AG04160C FAD lymphoblast cells are seeded in T-25 cm^2 flasks at 2.5 to 5.0×10^5 cells/ml in a total volume of 10 ml. […] The total protein concentration in whole cell lysate samples is determined using the BCA method (Pierce). Next, 15 μg of sample is loaded on a 10% Bis-Tris NuPage gel and transferred to a pure nitrocellulose membrane followed by β-catenin immunoblot analysis using a (3-catenin specific antibody (Transduction Labs). The β-catenin accumulation/stability is then quantified following densitometry analysis of protein bands (Kodak Digital Science). Final results are reported as fold induction over basal β-catenin. The compound of Example 121 was tested in this assay and induced a 9.8-fold induction of β-catenin at 0.1 μM.

[5] = system: ZDF rats; test: Glucose Lowering Assay; format: in vivo, rat; conditions: oral gavage, dose of 10 mg/kg
Procedure: The glucose lowering assay is an in vivo test that measures the effect of the test compound on blood glucose and triglycerides relative to insulin. (ELDAR-FINKLEMAN, H., et al., Expression and Characterization of Glycogen Synthase Kinase-3 Mutants and Their Effect on Glycogen Synthase Activity in Intact Cells, Proc. Nat. Acad. Sci, 93, 10228-10233 (1996)). Briefly, ZDF rats (Charles River, Inc.) at six weeks of age are housed individually with free access to food and water. Rats are dosed with drug once daily by oral gavage, with the compound prepared as a suspension in 1% caboxymethylcellusolve/0.25% Tween 80 (CMC-Tween). Vehicle controls are dosed with CMC-Tween only. The duration of study varied according to the protocol used, with acute dosing studies lasting one day and dose escalation studies lasting seven days. Body weights and food consumption measurements are also performed once a week for seven-day studies. For measurement of blood glucose and triglycerides, blood samples of 600 μl are collected by the tail snip method. […]

Structure (SMILES) | hypertrophy and proliferation of osteoblasts with production of osteoid ([1]; 50 mg/kg) | hypertrophy and proliferation of osteoblasts with production of osteoid ([1]; 150 mg/kg) | increase of glycogen synthesis ([2]; in the absence of insulin) | increase of glycogen synthesis ([2]; in the presence of insulin) | inhibition of kinase activity (ex vivo GSK-3β, brain cortex) [3] | fold induction over basal β-catenin [4] | glucose lowering [5]
O=C1NC(=O)C(c2cnc3ccccn23)=C1c1cn2c3c(cccc13)CN(c1ncccn1)CC2 [Example 560, 3-(6-(pyrimidin-2-yl)-6,7-dihydro-6H-[1,4]diazepino[6,7,1-hi]indol-1-yl)-4-(imidazo[1,2-a]pyridin-3-yl)pyrrole-2,5-dione] | + | + |  |  |  |  | 
Cl.O=C1NC(=O)C(c2cc(F)cc3ccoc23)=C1c1cn2c3c(cccc13)CNCC2 [Example 121, 3-(6,7-dihydro-6H-[1,4]diazepino[6,7,1-hi]indol-1-yl)-4-(5-fluorobenzofur-7-yl)-2,5-dioxopyrrole hydrochloride] |  |  | 3.7 fold | 6.4 fold | 30% | 9.8 fold | 56%
